Source: patent US20020150553A1, “Compositions containing C-terminal polypeptides of angiogenic chemokines and methods of use” (The Regents of the University of California, priority 1999, published 2002)

How the values were obtained:
[1] = system: leukocytes; experiment: Chemotaxis for leukocytes and tissue changes in cross sections of treated CAMs; format: in vivo, chicken; settings: for chemotaxis for leukocytes: 100 ng
Protocol: The cells inside the large blood vessel are erythrocytes (these chicken cells are nucleated). […] (C) Natural CAM showing sparse cells and a single blood vessel. Scale bars=100 μm.
(§1) These assays were done as previously described [Martins-Green et al. (1998)]. Briefly, fertilized chicken eggs were incubated for 3 days at 37° C., at which time 2 ml of albumin were withdrawn to drop the embryo and CAM away from the shelf. Windows were made on day 4, the holes covered with transparent tape, and the eggs placed back in the incubator until day 10 when the experiment was performed. Pellets were prepared by mixing the appropriate amount of reduced and non-reduced 9E3 peptides or bFGF with 1% methylcellulose (1:1) and then delivering 5-μl droplets on a bacterial dish and allowing them to dry in a sterile hood for approximately 30 min. This procedure generated small disc-shaped pellets 2 mm in diameter and ˜0.1 mm thick. These pellets containing various concentrations of protein were placed, under sterile conditions, between two large blood vessels of the 10-day-old CAMs. Two or four days later, the pellets and the surrounding area of the CAM were fixed in situ; the CAMs were then removed and examined for the presence of chemotaxis and/or angiogenesis. Angiogenesis was quantified by analysis of blood vessel orientation and/or increase in the number of vessels and sprouts (see below). Negative control pellets were prepared in the same way with 0.5% methylcellulose alone or with the same concentration of BSA as used for the cCAF peptide or with peptide preincubated with an antibody made against it [Martins-Green et al. (1992)].
Although the general structure of treated and untreated CAMs is the same, some differences were seen.

[2] = Time-dependent release of the 9E3 peptide from methylcellulose pellets; format: physicochemical; settings: 300 ng 125I-labeled peptide in 0.5% methylcellulose pellet, PBS, 37° C.
Protocol: Samples of 280 μl of saline were removed periodically for scintillation counting and replaced by fresh saline. Error bars represent the standard deviation for 15 samples taken at each time point.
Methylcellulose pellets containing either form of the peptide at different concentrations were placed on mature CAMs [see Martins-Green M, Feugate J E (1998) The 9E3/CEF4 gene product is a chemotactic and angiogenic factor that can initiate the wound healing cascade in vivo. Cytokine 10:522-535]. Because the peptide is much smaller than cCAF itself, it is possible that release from the pellet might be much more rapid than for the entire molecule. Therefore, before performing the experiments on the CAM we determined the kinetics of release of the C-terminal peptide from pellets under reducing conditions for which the peptide will be a monomer and therefore of smallest size.
Five microliters of 0.5% methylcellulose (Fisher) containing 300 ng of ^125I-labeled 9E3 peptide were placed in the bottom of 15 Eppendorf tubes (0.5 ml), allowed to dry and then covered with 300 μl of sterile PBS containing 0.02% sodium azide and incubated at 37° C. […] The label released into the fluid was counted in a scintillation counter to determine if and over what period of time the peptide was released.

[3] = system: blood vessels of the chorioallantoic membrane (CAM); experiment: Angiogenesis assays in the CAM (chorioallantoic membrane); format: in vivo, chicken; settings: for percent of blood vessels oriented towards the pellet minus percent directed away: cCAF peptide 100-300 ng; for angiogenesis / oriented blood vessel growth after preincubation with antibody: peptide (100-300 ng) preincubated with excess of an antibody prepared against it; for new sprouting of blood vessels of the CAM: 4 days after application
Protocol: as §1
As previously described, 10-day-old CAMs were used because at this stage of development the CAM close to the embryo is fully developed; the blood vessels in this area have stopped growing and assumed a tree-like pattern with short stubby tertiary branches (FIG. 2A). […] [Martins-Green et al. (1997); Vu M T, Smith C F, Burger P C, Klintworth G K (1985) Methods in laboratory investigation. An evaluation of methods to quantitate the chick chorioallantoic membrane assay in angiogenesis. Lab Invest 4:499-508; Klagsbrun M, D'Amore P A (1991) Regulators or angiogenesis. Annu Rev Physiol 53:217-239; Cockerill G W, Gamble J R, Vadas M A (1995) Angiogenesis: models and modulators. Interntl Rev Cytol 1.59:113-160; and Swerlick R A (1995) Angiogenesis. J Dermatol 22:845-852.]
The CAMs were then analyzed by making measurements of the orientation of the blood vessels relative to the pellet. For each concentration of the C-terminal peptide and for all controls, 6-10 CAMs were measured. Vessels were classified (FIG. 2A) as primary (largest), secondary (branches of primary vessels) and tertiary (all other vessels). […] The measurements were made without prior knowledge of which specimens were controls and which were cCAF. For secondary vessels; we looked for deviations in their orientations. For tertiary vessels, each vessel was approximated by a vector pointing in its growth direction. Each vector was resolved into components directed radially and tangentially with respect to the pellet; the definition of toward or away was determined from the radial component of the vector. For graphical presentation of the data, the percent of blood vessels growing toward the pellet was determined for secondary and tertiary vessels (FIG. 5).
Quantification of blood vessel sprouting was performed as described previously [Martins-Green et al. (1998)]. Briefly, a sprout was defined as a very small blood vessel having a length of one third or less that of the tertiary branches of the normal CAM. Sprouts thus defined were counted in the areas of the CAMs with pellets containing 1000 ng of C-terminal peptide. For CAMs treated with 1000 ng/pellet of C-terminal peptide, we counted sprouts on 90 mm total of 21 individual blood vessel segments from 6 different CAMs. For the BSA controls we counted sprouts on 123 mm of 24 segments of blood vessels.

[4] = system: blood vessels of wing muscle tissue; experiment: Angiogenic assays in 2-week-old chicks (peptide deposited under the skin of the wing); format: in vivo, chick; settings: 1 μg/10 μl under the skin of the wing on two consecutive days, four days after first dose
Text: Hematoxylin and eosin stained cross sections of wing muscle tissue showing organization of the muscle fibers. (A) Very few blood vessels (arrowheads) can be seen amongst the untreated muscle fibers. A large nerve bundle can be seen (black dot) associated with three small blood vessels. (B) Similar section taken from the wing of a bird that has been treated with the C-terminus peptide. Note the presence of numerous small blood vessels (arrowheads) amongst the muscle fibers. (C) Similar section from a bird treated with only buffer vehicle for the peptide. The number of blood vessels (arrowheads) is similar to that of the control. Scale bar=50 μm.
To further test the angiogenic potential of the C-terminal peptide, 1 μg of the peptide in 10 μl of water was deposited under the skin of the underside of the wing of 2-week-old chicks on two consecutive days, and the tissues prepared for histology on the fourth day.
The C-terminal peptide was deposited under the skin of the under wing of […] chicks using a procedure described previously [Martins-Green M, Boudreau N, Bissell M J (1994) Inflammation is responsible for the development of wound tumors in RSV-infected newly-hatched chicks. Cancer Res 54:4334-4341]. Two samples of 1 μg/10 μl each, were applied on two consecutive days followed by a waiting period of 3 days. […]

[5] = supernatant of normal cultures of CEFs; cited from earlier work
[6] = CAM cross sections two days after application of pellets
[7] = higher doses, 600-1000 ng/pellet

**Q.** Which “hyperproliferation of the ectoderm of the CAM” value [1, 6] does the source give for “C-terminal peptide: last 28 aas of the C-terminus of cCAF (residues 76 to 103 of SEQ ID NO:1), with cysteine No. 4 as N-terminal most aa (CLDPTAPWVQLIVKALMAKAQLNSDAPL; Gallusgallus)” here?
**A.** Its value is “slightly hyperproliferated”.

**Q.** And the chemotaxis for leukocytes [1, 6]?
**A.** Its chemotaxis for leukocytes is “no chemotaxis for leukocytes”.

**Q.** And the “leukocyte chemotaxis or granulation-like tissue formation” value ([1]; in vivo, CAM and chick wing)?
**A.** Its value is “no evidence was found”.

**Q.** And the “duration of slow, prolonged release from the pellet” value [2]?
**A.** Its value is “up to 48 h”.

**Q.** And the “period in which the majority of the peptide was released from the pellet” value ([2]; reducing conditions (monomer))?
**A.** Its value is ≤ 6 h.

**Q.** And the “number of new sprouts relative to CAMs treated with BSA” value ([3]; 1000 ng/pellet)?
**A.** Its value is “about 10 times”.

**Q.** And the “blood vessel growth towards the pellet” value ([3]; 100-300 ng per pellet)?
**A.** The value was “stimulated the blood vessels to grow towards the pellet”.

**Q.** What about the “tortuosity and sprouting effects after preincubation with antibody” value ([3]; 600-1000 ng/pellet, peptide preincubated with excess antibody directed against it) of the same molecule?
**A.** Its value is “eliminated”.

**Q.** And the “percent of blood vessels oriented towards the pellet minus percent directed away” value ([3]; bFGF 500 ng)?
**A.** The value was “marked blood vessel orientation toward the pellet”.

**Q.** And the “reorientation of blood vessels” value [3, 7]?
**A.** The value was “greatly decreased”.

**Q.** And the “sprouting of blood vessels” value [3, 7]?
**A.** The value was “abundant sprouting”.

**Q.** What about the “tortuosity of blood vessels” value [3, 7] of the same molecule?
**A.** The value was “marked tortuosity”.

**Q.** And the “most effective doses (significant increase in angiogenic activity: tortuosity and sprouting)” value ([3]; localized administration in CAM assay)?
**A.** The value was > 450 ng.

**Q.** What about the “percentage of CAMs showing reorientation and/or growth of blood vessels towards the pellet” value (shortened to “percentage”) ([3]; non-reduced peptide) of the same molecule?
**A.** Its value is 94%.

**Q.** And the “percentage” value ([3]; non-reduced peptide, listed as cCAF peptide)?
**A.** The value was ~100%.

**Q.** What about the “angiogenesis / oriented blood vessel growth after preincubation with antibody” value [3] of the same molecule?
**A.** The value was “the effect was eliminated”.

**Q.** And the “angiogenesis / oriented blood vessel growth after preincubation with antibody” value ([3]; listed as cCAF peptide)?
**A.** Its value is “no angiogenesis was seen”.

**Q.** What about the “percentage” value ([3]; peptide under reducing conditions) of the same molecule?
**A.** The value was 96%.

**Q.** What about the “percentage” value ([3]; peptide under reducing conditions, listed as cCAF peptide) of the same molecule?
**A.** The value was ~100%.

**Q.** And the “most effective dose for oriented growth of secondary blood vessels” value ([3]; per pellet, secondary vessels)?
**A.** Its value is ~100 ng.

**Q.** What about the “most effective dose for oriented growth of tertiary blood vessels” value ([3]; per pellet, tertiary vessels) of the same molecule?
**A.** Its value is ~300 ng.

**Q.** What about the “small blood vessels in muscle tissue underlying the site of application versus vehicle and normal wing” value [4] of the same molecule?
**A.** Its value is “many more small blood vessels”.

**Q.** With “IL-8: interleukin 8, ELR-CXC chemokine (SEQ ID NO:3)” as the molecule, how does the “new sprouting of blood vessels of the CAM” value ([3]; 500 ng per pellet) read?
**A.** Its value is “extensive new sprouting”.

**Q.** With “bFGF: Basic fibroblast growth factor, positive control in the CAM assay [reference compound]” as the molecule, how does the “percent of blood vessels oriented towards the pellet minus percent directed away” value ([3]; bFGF 500 ng) read?
**A.** Its value is “marked blood vessel orientation toward the pellet”.

**Q.** And the “percentage” value ([3]; positive control, 500 ng/pellet)?
**A.** The value was 100%.

**Q.** What about the “percent of secondary vessels deviated toward the pellet” value ([3]; secondary vessels, bFGF 500 ng) of the same molecule?
**A.** Its value is “over 90%”.

**Q.** And the “percent of tertiary vessels pointing in the direction of the pellet” value ([3]; tertiary vessels, bFGF 500 ng)?
**A.** The value was “less than 80%”.

B1: cCAF: Chicken chemotactic and angiogenic factor, product of the 9E3 gene, 9 kDa CXC chemokine (SEQ ID NO:1) (protein)
chain: MNGKLGAVLALLLVSAALSQGRTLVKMGNELRCQCISTHSKFIHPKSIQDVKLTPSGPHCKNVEIIATLKDGREVCLDPTAPWVQLIVKALMAKAQLNSDAPL
modifications: Gallusgallus
**Q.** What does the source list for B1?
**A.** chemotaxis for leukocytes [1, 6]: chemotactic for monocyte/macrophages and lymphocytes; new sprouting of blood vessels of the CAM ([3]; 450 ng per pellet): extensive new sprouting; period for which the 9 kDa form is stable [5]: 24 h
